Earlier results on one compound are cited in patent publication US7759338B2, “Soluble 1,4 benzodiazepine compounds and stable salts thereof” (The Regents of the University of Michigan, priority 2006, dated 2010).

The test system of one series is rodents. Particulars: two daily doses.
In series [1] the target is mitochondrial F1Fo-ATPase. Particulars: F1Fo-ATPase inhibition.

What is called LD50 is the dose at which mortality reaches 50%. Usually IC50 stands for the point on the concentration scale where inhibition reaches its midpoint. Regarding `CC[C@H]1/C=C/C=C/C[C@@H](C)[C@H](O)[C@@](C)(O)C(=O)[C@@H](C)[C@H](O)[C@@H](C)C(=O)[C@@H](C)[C@H](O)[C@@H](C)/C=C/C(=O)O[C@@H]2[C@H](C)[C@H](CC1)O[C@]1(CC[C@H](C)[C@H](C[C@@H](C)O)O1)[C@H]2C` [oligomycin], the 50% lethal dose (LD50) with rodents is 0.5 mg/kg. In series [1], the IC50 is 10 nM.
